Measurements as given in publication PMC12951562, “SH2scan: Mapping SH2 Domain-Ligand Binding Selectivity for Inhibitors and Degraders” (Journal of Medicinal Chemistry, 2026).
Like-named read-outs stand apart in the source and are kept apart here. Non-standard residues stand in square brackets, D forms with d. Residues, ends and D or L forms follow the SMILES beside them. pY = N[C@@H](Cc1ccc(OP(=O)(O)O)cc1)C(=O)O

Assays:
PTPN11(SH2dom.N-term.) = target: T1, PTPN11(SH2dom.N-term.) (Homo sapiens, UniProt Q06124); format: binding; settings: primary screen, 10 μM
T1 construct: SH2dom.N-term. denotes SH2 domain closest to N-terminus of protein; made in house; host or cells: HEK293 (transient transfection, unpurified extract)
T1 sequence (Q06124 6-102 limits assumed): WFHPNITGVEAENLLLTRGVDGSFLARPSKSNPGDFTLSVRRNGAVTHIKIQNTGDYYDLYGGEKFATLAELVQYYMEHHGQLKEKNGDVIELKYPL

[1] = target: T2, STAT3(D661Y)-nonphosphorylated (Homo sapiens, UniProt P40763, D661Y); experiment: biochemical; format: binding
T2 construct: made in house; host or cells: HEK293 (transient transfection), unpurified extract, dephosphorylated by endogenous phosphatases

CBL = target: T3, CBL (Homo sapiens, UniProt P22681); experiment: biochemical; format: binding; settings: primary screen, 10 μM
T3 construct: the DNA-tagged SH2 domain concentrations used in this study were <0.1 nM; made in house; host or cells: HEK293 (transient transfection; unpurified extract)
T3 sequence (P22681 249-351 limits assumed): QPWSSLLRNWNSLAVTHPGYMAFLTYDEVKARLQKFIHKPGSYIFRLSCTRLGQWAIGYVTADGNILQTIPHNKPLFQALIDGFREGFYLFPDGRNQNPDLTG

VAV3 = target: T4, VAV3 (Homo sapiens, UniProt Q9UKW4); experiment: biochemical; format: binding
T4 construct: made in house; host or cells: HEK293 (transient transfection), unpurified extract
T4 sequence (Q9UKW4 1-847): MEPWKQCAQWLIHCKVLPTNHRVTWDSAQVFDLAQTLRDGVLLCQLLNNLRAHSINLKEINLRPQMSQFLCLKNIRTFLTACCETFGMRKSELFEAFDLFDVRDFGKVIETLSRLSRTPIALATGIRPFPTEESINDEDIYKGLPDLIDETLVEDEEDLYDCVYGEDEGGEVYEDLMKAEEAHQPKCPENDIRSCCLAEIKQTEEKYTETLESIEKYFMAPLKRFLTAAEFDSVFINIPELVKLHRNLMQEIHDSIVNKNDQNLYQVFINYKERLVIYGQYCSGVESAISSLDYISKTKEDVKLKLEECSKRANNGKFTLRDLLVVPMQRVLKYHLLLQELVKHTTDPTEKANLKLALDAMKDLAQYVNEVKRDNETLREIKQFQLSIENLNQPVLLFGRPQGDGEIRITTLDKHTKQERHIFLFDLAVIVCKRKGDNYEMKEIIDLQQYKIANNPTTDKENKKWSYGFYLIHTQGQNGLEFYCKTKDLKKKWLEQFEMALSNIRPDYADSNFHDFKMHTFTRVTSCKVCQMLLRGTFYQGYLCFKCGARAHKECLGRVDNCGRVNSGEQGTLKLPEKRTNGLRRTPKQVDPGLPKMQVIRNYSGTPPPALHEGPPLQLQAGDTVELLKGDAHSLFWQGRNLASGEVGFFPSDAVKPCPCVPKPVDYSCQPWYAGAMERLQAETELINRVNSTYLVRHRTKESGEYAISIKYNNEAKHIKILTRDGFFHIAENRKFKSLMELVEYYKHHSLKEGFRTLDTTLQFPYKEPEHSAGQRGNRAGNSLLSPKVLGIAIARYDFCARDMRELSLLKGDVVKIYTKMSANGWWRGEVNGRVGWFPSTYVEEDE

PLCG2(SH2dom.N-term.) = target: T5, PLCG2(SH2dom.N-term.) (Homo sapiens, UniProt P16885); experiment: biochemical; format: binding; settings: for remaining activity at 10 µM: read-out: percent of DMSO vehicle control
T5 construct: SH2dom.N-term. denotes SH2 domain closest to N-terminus of protein; made in house; host or cells: HEK293 (transient transfection, unpurified extract)
T5 sequence (P16885 532-635 limits assumed): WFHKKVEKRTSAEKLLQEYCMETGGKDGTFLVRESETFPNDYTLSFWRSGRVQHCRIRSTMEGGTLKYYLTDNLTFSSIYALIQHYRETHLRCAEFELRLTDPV

TXK = target: T6, TXK (Homo sapiens, UniProt P42681); experiment: biochemical; format: binding; settings: for remaining activity at 10 µM: read-out: percent of DMSO vehicle control
T6 construct: made in house; host or cells: HEK293 (transient transfection), unpurified extract
T6 sequence (P42681 1-527): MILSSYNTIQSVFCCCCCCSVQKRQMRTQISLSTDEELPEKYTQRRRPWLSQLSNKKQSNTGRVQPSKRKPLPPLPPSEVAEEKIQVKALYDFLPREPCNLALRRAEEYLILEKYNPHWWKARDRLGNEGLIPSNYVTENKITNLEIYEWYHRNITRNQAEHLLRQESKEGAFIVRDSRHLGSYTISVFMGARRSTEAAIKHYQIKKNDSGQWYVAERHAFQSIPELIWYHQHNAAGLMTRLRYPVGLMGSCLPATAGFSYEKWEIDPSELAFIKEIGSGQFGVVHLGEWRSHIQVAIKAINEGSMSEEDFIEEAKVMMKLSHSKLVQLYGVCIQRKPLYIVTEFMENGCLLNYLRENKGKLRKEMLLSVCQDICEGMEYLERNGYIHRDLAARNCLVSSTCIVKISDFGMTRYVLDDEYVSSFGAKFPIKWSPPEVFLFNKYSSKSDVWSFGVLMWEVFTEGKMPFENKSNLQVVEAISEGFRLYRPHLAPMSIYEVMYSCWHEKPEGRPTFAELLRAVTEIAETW

GRAP = target: T7, GRAP (Homo sapiens, UniProt Q13588); experiment: biochemical; format: binding
T7 construct: the DNA-tagged SH2 domain concentrations used in this study were <0.1 nM; made in house; host or cells: HEK293 (transient transfection; unpurified extract)

YES = target: T8, YES (Homo sapiens, UniProt P07947); experiment: biochemical; format: binding; settings: for remaining activity at 10 µM: read-out: percent of DMSO vehicle control
T8 construct: the DNA-tagged SH2 domain concentrations used in this study were <0.1 nM; made in house; host or cells: HEK293 (transient transfection; unpurified cell extract)

STAT1 = target: STAT1; set-up: method as in Bai et al., Cancer Cell, 2019; settings: FP and BLI; ref Bai et al., Cancer Cell, 2019; cited from earlier work
STAT4 = target: STAT4; set-up: method as in Bai et al., Cancer Cell, 2019; settings: FP and BLI; ref Bai et al., Cancer Cell, 2019; cited from earlier work
STAT3 = target: STAT3; set-up: method as in Bai et al., Cancer Cell, 2019; settings: FP and BLI; ref Bai et al., Cancer Cell, 2019; cited from earlier work
STAT2 = target: STAT2; set-up: method as in Bai et al., Cancer Cell, 2019; settings: FP and BLI; ref Bai et al., Cancer Cell, 2019; cited from earlier work
STAT6 [2] = target: STAT6; set-up: method as in Bai et al., Cancer Cell, 2019; settings: FP and BLI; ref Bai et al., Cancer Cell, 2019; cited from earlier work
STAT6 [3] = test system: STAT6; set-up: method as in Mandal et al., Journal of Medicinal Chemistry, 2015; settings: FP; ref Mandal et al., Journal of Medicinal Chemistry, 2015; cited from earlier work
[4] = read-out: percent of DMSO vehicle control
[5] = primary screen, 10 μM, read-out: percent of DMSO vehicle control

With `CC[C@H](C)[C@H](NC(=O)[C@H](CCC(=O)O)NC(=O)[C@H](CCC(=O)O)NC(=O)[C@H](Cc1ccc(OP(=O)(O)O)cc1)NC(C)=O)C(=O)N[C@@H](CCC(=O)O)C(N)=O` [Ac-pYEEIE-NH2] (Ac-[pY]EEIE-NH2) the “percent of DMSO vehicle control” value (PTPN11(SH2dom.N-term.)) was 116.6%, the “percent of DMSO vehicle control” value ([1]; primary screen, 10 μM) was 91.4±3.8% and the “percent of DMSO vehicle control” value (CBL) was 121.6%. For the same compound, the “percent of DMSO vehicle control” value (VAV3; primary screen, 10 μM) was 75.8%, the “percent of DMSO vehicle control” value (PLCG2(SH2dom.N-term.); primary screen, 10 μM) was 92.3±3.3% and the “percent of DMSO vehicle control” value (TXK; primary screen, 10 μM) was 109.9%. The “percent of DMSO vehicle control” value (GRAP; primary screen, 10 μM) was 112.9%, the Kd (YES) was 3800 nM and the “percent of DMSO vehicle control” value (YES; primary screen, 10 μM) was 14.2±1.5%.

In the case of `NC(=O)CC[C@H](NC(=O)[C@@H]1CC[C@@H]2CCN(C(=O)CCCCCC#Cc3cccc4c3CN(C3CCC(=O)NC3=O)C4=O)C[C@H](NC(=O)c3cc4cc(C(F)(F)P(=O)(O)O)ccc4[nH]3)C(=O)N21)C(=O)NC(c1ccccc1)c1ccccc1` (some centres unmarked) [SD-36], the Kd (STAT1) is listed as 1090 nM, the “percent of DMSO vehicle control” value (PTPN11(SH2dom.N-term.)) is listed as 89.9±0.7% and the Kd (STAT4) is listed as 804 nM. For the same compound, the Kd ([1]; dose-response) was 24 ± 12 nM, the percent of DMSO vehicle control at 10 µM [1, 4] was 0% and the Kd (STAT3) was 44.4 nM. For the same compound, the Kd (STAT2) was 4880 nM, the percent of DMSO vehicle control at 10 µM (VAV3; [4]) was 82.1 ± 3.8% and the remaining activity at 10 µM (PLCG2(SH2dom.N-term.)) was 73.8 ± 3.7%. For the same compound, the remaining activity at 10 µM (TXK) was 101 ± 9.7%, the percent of DMSO vehicle control at 10 µM (GRAP; [4]) was 89.2 ± 4.6% and the remaining activity at 10 µM (YES) was 73.3 ± 11.9%. The Kd (STAT6 [2]) was 11300 nM.

For `CC(C)(C)[C@H](NC(=O)/C=C/c1ccc(OP(=O)(O)O)cc1)C(=O)N1CCC[C@H]1C(=O)N(c1ccccc1)c1ccc(I)cc1` [STAT6-IN-3], the IC50 (STAT6 [3]) is given as 44 nM, the “percent of DMSO vehicle control” value (PTPN11(SH2dom.N-term.)) is given as 73.9±34.6% and the Kd ([1]; dose-response, read-out: KD) is given as 1900 ± 2300 nM. The remaining activity at 10 µM [1, 5] was 4.4 ± 3.7%, the remaining activity at 10 µM (VAV3; [5]) was 76.8 ± 21.6% and the remaining activity at 10 µM (PLCG2(SH2dom.N-term.); primary screen, 10 μM) was 51.6 ± 17.6%. It also gave a remaining activity at 10 µM (TXK; primary screen, 10 μM) of 85.4 ± 12.9%, a remaining activity at 10 µM (GRAP; [5]) of 73.5 ± 23.6% and a remaining activity at 10 µM (YES; primary screen, 10 μM) of 37.7 ± 27.8%.

With `CC(=O)N[C@@H](Cc1ccc(CP(=O)(O)O)cc1)C(=O)NC1(C(=O)N[C@@H](CC(N)=O)C(=O)NCCCc2c(O)ccc3ccccc23)CCCCC1` [CGP78850] the “percent of DMSO vehicle control” value (PTPN11(SH2dom.N-term.)) was 125.2±9.1%, the percent of DMSO vehicle control at 10 µM [1, 4] was 97.4 ± 6.3% and the Kd (VAV3) was 860 nM. It also gave a percent of DMSO vehicle control at 10 µM (VAV3; [4]) of 21.7 ± 3.7%, a remaining activity at 10 µM (PLCG2(SH2dom.N-term.)) of 87.2 ± 19.7% and a remaining activity at 10 µM (TXK) of 74.4 ± 2.5%. It also gave a Kd (GRAP) of 3.3 nM, a percent of DMSO vehicle control at 10 µM (GRAP; [4]) of 0% and a remaining activity at 10 µM (YES) of 66.7 ± 8.3%.

For `CC(=O)N1CC[C@H]2CC[C@@H](C(=O)N[C@@H](CCC(N)=O)C(=O)NC(c3ccccc3)c3ccccc3)N2C(=O)[C@@H](NC(=O)c2cc3cc(C(F)(F)P(=O)(O)O)ccc3[nH]2)C1` [SI-109], the Kd (STAT1) is given as 1270 nM, the “percent of DMSO vehicle control” value (PTPN11(SH2dom.N-term.)) is given as 109.2% and the Kd (STAT4) is given as 1980 nM. The Kd [1] was 21 ± 6.8 nM, the percent of DMSO vehicle control at 10 µM [1, 4] was 0.6 ± 0.2% and the Kd (STAT3) was 51.2 nM. For the same compound, the Kd (STAT2) was 6630 nM, the percent of DMSO vehicle control at 10 µM (VAV3; [4]) was 130% and the remaining activity at 10 µM (PLCG2(SH2dom.N-term.)) was 112%. For the same compound, the remaining activity at 10 µM (TXK) was 118%, the percent of DMSO vehicle control at 10 µM (GRAP; [4]) was 141% and the remaining activity at 10 µM (YES) was 113%. The Kd (STAT6 [2]) was 3370 nM.
